Measured values published in patent publication US4029807A (priority 1975, dated 1977).

Assays:
[1] = Clinical tolerability / adverse effects; conditions: view of the Applicant
[2] = test system: depressed patients; conditions: 10-50 mg intravenously, with a monoamino-oxydase inhibitor; cited from earlier work
[3] = Acute toxicity, intraperitoneal; type: in vivo, I.C.R. Swiss albino mice; conditions: mouse, in vivo, ip; mice of both sexes, intraperitoneal
Protocol: (§1) The studies of acute toxicity have been made with I.C.R. Swiss albino mice of both sexes. We express the toxicity date with the parameters of lethal dose 16 (LD16), lethal dose 50 (LD50) and lethal dose 84 (LD84), in mg/kg. of weight. The substance was administered intraperitoneally.

[4] = test system: I.C.R. Swiss albino mice; test: Acute toxicity, intraperitoneal; type: in vivo
Protocol: as §1

[5] = test system: MAO; conditions: non-hydrazinic MAO inhibitor; cited from earlier work
[6] = clinical use, as described; cited from earlier work
[7] = test system: female mice; test: Irwin's schema (behavioural symptomatology); type: in vivo; conditions: for symptomatology of our product observed with comparator: L-glutamic acid and L-5 hydroxytryptophan: separate administration at equimolecular doses
[8] = test system: cerebral serotonin; conditions: statement without data; cited from earlier work
[9] = cited from earlier work
[10] = test system: antidepressive effects of the MAO inhibitors; conditions: in vivo; cited from earlier work
[11] = test system: serotonin in the brain; conditions: dogs; cited from earlier work
[12] = test system: depressive patient; conditions: total dose 150 mg, cited from earlier work; for response of depressive symptoms: amitryptiline with anticonvulsivant therapy for two months, 5-hydroxytryptophan 5 days, L-DOPA previously
[13] = test system: uptake I (presynaptic membrane); conditions: presynaptic membrane level; cited from earlier work
[14] = test system: patients affected by Parkinson's disease; conditions: human, in vivo; cited from earlier work
[15] = test system: patients in depressive phase; conditions: 5 weeks, tablets 20, 50 and 100 mg three times a day; cited from earlier work
[16] = test system: serotonin in the brains of rats; conditions: administered at the same time as monoamino-oxydase inhibitors; cited from earlier work
[17] = Analgesic activity, thermal analgesia (hot plate at 55° C.); type: in vivo
[18] = Analgesic activity, chemical analgesia; type: in vivo
[19] = test system: cerebral serotonin; test: Cerebral serotonin level (inferred from symptomatology of the animals injected); type: in vivo; conditions: compared with sole administration of L-5-hydroxytryptophan
[20] = test system: responses to serotonin (rat's isolated uterus); test: Antiserotoninic activity, rat's isolated uterus; conditions: 40 mcg/ml
[21] = mice of both sexes, intraperitoneal

5-hydroxytryptophan glutamate [the product obtained by this method]
tolerability [1]: great tolerability

NC(Cc1c[nH]c2ccc(O)cc12)C(=O)O (racemic) [DL-5-OH-tryptophan]
improvement of depression [2]: improvement of depression in one day

N[C@@H]1C[C@H]1c1ccccc1 (relative stereo) [Tranilcypromine]
LD50 [3]: 11.3 mg/kg | LD16 [4, 21]: 7.3 mg/kg | LD84 [4, 21]: 18 mg/kg | inhibition of MAO [5]: powerful inhibitor of non-hydrazinic MAO | adverse effects and secondary reactions [6]: great amount of adverse effects and secondary reactions | symptomatology of our product observed with comparator [7]: Neither is this symptomatology observed | cerebral serotonin raising action compared with our product [8]: very inferior to our product

N[C@@H](Cc1c[nH]c2ccc(O)cc12)C(=O)O [5-hydroxytryptophan]
tissue penetration ([9]; animals): rapidly penetrates most tissues | conversion into serotonin ([9]; if there is decarboxylase): converted into serotonin | potentiation of the antidepressive effects of the MAO inhibitors [10]: potentiation of the antidepressive effects of the MAO inhibitors has been observed | raising of the level of serotonin in the brain [11]: 10 times | time to disappearance of the depressive symptoms after treatment ([12]; 5 days): two | response of depressive symptoms [12]: rapid improvement in the state of mind

CN(C)CCCN1c2ccccc2CCc2ccccc21 [Imipramine]
LD16 [4, 21]: 33.3 mg/kg | LD84 [4, 21]: 80 mg/kg | incorporation blockage (uptake I) [13]: produces an incorporation blockage (uptake I) on the presynaptic membrane level

N[C@@H](Cc1c[nH]c2ccc(O)cc12)C(=O)O [L-5-hydroxytryptophan]
anti-tremor effect [14]: visible anti-tremor effect | antidepressive action in Parkinson's disease patients [14]: intense antidepressive action with improvement of the affective field, of the psychomotor impulse and activation of personal initiative | symptomatology of our product observed with comparator [7]: not observed | remission of depressive symptoms [15]: symptoms remitting so rapidly that even the patients themselves were impressed

N[C@@H](Cc1ccc(O)c(O)c1)C(=O)O [L-DOPA]
response of depressive symptoms [12]: without obtaining any result

N[C@@H](CCC(=O)O)C(=O)O [L-glutamic acid]
symptomatology of our product observed with comparator [7]: not observed

CN(C)CCC=C1c2ccccc2CCc2ccccc21 [amitryptiline]
response of depressive symptoms [12]: did not produce any positive response

N[C@@H](Cc1c[nH]c2ccccc12)C(=O)O [tryptophan]
increase in brain serotonin with monoamino-oxydase inhibitors [16]: the increase becomes higher | potentiation of the antidepressive effects of the MAO inhibitors [10]: potentiation of the antidepressive effects of the MAO inhibitors has been observed

L-5 hydroxytryptophan monohydrate L-glutamate [Our product]
times less toxic than imipramine ([4]; from the foregoing table): 6 times | times less toxic than tranilcypromine ([4]; from the foregoing table): 300 times | LD16 [4, 21]: 260.5 mg/kg | LD50 [4, 21]: 323 mg/kg | LD84 [4, 21]: 401.4 mg/kg | adverse effects and secondary reactions [6]: No interesting secondary reactions have yet been described | analgesic action, hot plate [17]: significant analgesic action | analgesic effect compared with dextropropoxyphene ([18]; 10 mg/kg oral vs dextropropoxyphene 50 mg/kg intraperitoneal, technique (chemical or thermal) not specified): same analgesic effect as dextropropoxyphene | analgesic action, chemical analgesia ([18]; in vivo): significant analgesic action | duration of symptoms ([7]; 10 mg/kg orally): ≥ 120 min | onset of symptoms after administration ([7]; 10 mg/kg orally): 15 min | pharmacological activity compared with each ingredient separately ([7]; equimolecular doses): superior to that of each ingredient separately | symptoms (Irwin's schema) ([7]; our product 10 mg/kg orally, female mice 28±2 g): increase in the state of alertness, a reaction to cleanliness and an increase in spontaneous activity, in addition to restlessness and irritability | raising of cerebral serotonin levels [19]: raises the levels of cerebral serotonin, in a greater way than the sole administration of L-5-hydroxytryptophan | inhibition of the responses to serotonin [20]: 36%
